The text below walks through data of article PMC6504641 (Chembiochem : a European journal of chemical biology, 2018).

For the assay, the target named is BRAF (Homo sapiens, UniProt P15056). The experiment in a line: ELISA kinase assay, phospho-MEK1 readout. It is filed as biochemical. On the technique in general: In an ELISA, binding on a coated surface is turned into a signal by an enzyme label.
Chain of BRAF (P15056 whole entry): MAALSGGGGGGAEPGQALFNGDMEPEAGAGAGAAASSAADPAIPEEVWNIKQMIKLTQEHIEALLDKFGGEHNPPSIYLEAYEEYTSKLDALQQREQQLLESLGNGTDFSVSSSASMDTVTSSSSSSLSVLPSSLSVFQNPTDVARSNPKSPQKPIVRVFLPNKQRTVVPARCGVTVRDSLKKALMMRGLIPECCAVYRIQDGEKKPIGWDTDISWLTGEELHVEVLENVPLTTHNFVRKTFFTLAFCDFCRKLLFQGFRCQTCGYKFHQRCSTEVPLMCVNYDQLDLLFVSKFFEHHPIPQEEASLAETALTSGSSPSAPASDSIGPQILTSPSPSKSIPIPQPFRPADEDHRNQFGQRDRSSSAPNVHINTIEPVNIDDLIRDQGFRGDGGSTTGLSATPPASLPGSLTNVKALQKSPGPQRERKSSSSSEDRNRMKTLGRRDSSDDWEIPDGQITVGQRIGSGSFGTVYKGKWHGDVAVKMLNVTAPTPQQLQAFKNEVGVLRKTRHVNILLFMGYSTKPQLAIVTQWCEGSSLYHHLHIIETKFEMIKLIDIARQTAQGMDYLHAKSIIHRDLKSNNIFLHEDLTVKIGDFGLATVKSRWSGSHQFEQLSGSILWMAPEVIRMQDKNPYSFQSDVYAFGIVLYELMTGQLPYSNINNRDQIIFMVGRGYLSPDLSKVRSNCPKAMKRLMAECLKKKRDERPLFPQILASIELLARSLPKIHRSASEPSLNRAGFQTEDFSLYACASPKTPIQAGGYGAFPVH

The term IC50 denotes the concentration needed to halve the response being measured. A higher IC50 goes with weaker potency. Compound `N#Cc1c(Oc2ccc(F)c(NC(=O)Cc3cccc(C(F)(F)F)c3)c2)ccc2nc(NC(=O)C3CC3)sc12` [TAK-632] gave an IC50 of 0.7 nM.
